# Patent US20250092111A1, “POTENT AND STABLE POLYPEPTIDE ANALOGUES VIA SERINE/THREONINE LIGATION” (UNIVERSITY OF WASHINGTON, priority 2022, published 2025)
# Test system: mouse model of glucose disposal
# Test: Glucose tolerance test (GTT) in vivo
# Conditions: standard glucose tolerance test, data not shown
# Method: Given the promising activation and stability data, the peptides were tested in vivo using a standard glucose tolerance test (GTT).
structure (smiles),measurement,value
CCCCCCCCCCCCCCCCCCOCCOCCOCCOCCOCCC(=O)N[C@@H](CO)C(=O)NCCCC[C@H](NC(=O)[C@H](CO)NC(=O)[C@@H](NC(=O)[C@H](CC(=O)O)NC(=O)[C@H](CO)NC(=O)[C@@H](NC(=O)[C@H](Cc1ccccc1)NC(=O)[C@@H](NC(=O)CNC(=O)[C@H](CCC(=O)O)NC(=O)[C@H](C)NC(=O)[C@@H](N)Cc1c[nH]cn1)[C@@H](C)O)[C@@H](C)O)C(C)C)C(=O)N[C@@H](Cc1ccc(O)cc1)C(=O)N[C@@H](CC(C)C)C(=O)N[C@@H](CCC(=O)O)C(=O)NCC(=O)N[C@@H](CCC(N)=O)C(=O)N[C@@H](C)C(=O)N[C@@H](C)C(=O)N[C@@H](CCCCN)C(=O)N[C@@H](CCC(=O)O)C(=O)N[C@@H](Cc1ccccc1)C(=O)N[C@H](C(=O)N[C@@H](C)C(=O)N[C@@H](Cc1c[nH]c2ccccc12)C(=O)N[C@@H](CC(C)C)C(=O)N[C@H](C(=O)N[C@@H](CCCCN)C(=O)NCC(=O)N[C@@H](CCCNC(=N)N)C(=O)NCC(=O)O)C(C)C)[C@@H](C)CC [Peptide G2],glucose disposal efficiency compared to unmodified GLP-1,improved glucose disposal efficiency
